According to ChEMBL document CHEMBL1909600, “Ganodone, a bioactive benzofuran from the fruiting bodies of Ganoderma tsugae” (J Nat Prod, 2011):
pIC50: −log10 of the molar value.

How the values were obtained:
HCT-116 [1] = assay: Cytotoxicity against human HCT116 cells after 24 hrs by MTT assay; assay type: functional, cell-based; conditions: HCT-116, 24 h
HeLa = assay: Cytotoxicity against human HeLa cells after 24 hrs by MTT assay; assay type: functional, cell-based
[2] = Cytotoxicity against mouse Neuro2a cells after 24 hrs by MTT assay; assay type: functional, cell-based; conditions: N2a
HCT-116 [3] = assay: Cellular uptake in human HCT116 cells at 1 uM after 1 hr by confocal fluorescence microscopy; assay type: ADME, cell-based; conditions: hct-116, 1 h
[4] = Drug uptake in human HCT116 cells cytosol at 1 uM after 12 hrs by confocal fluorescence microscopy; assay type: ADME, cell-based, HCT-116
[5] = Drug uptake in human HCT116 cell nuclear membrane at 1 uM after 12 hrs by confocal fluorescence microscopy; assay type: ADME, cell membranes; conditions: hct-116, 12 h
[6] = Drug uptake in human HCT116 cell chromatin at 1 uM after 12 hrs by confocal fluorescence microscopy; assay type: ADME, cell-based; conditions: hct-116, 12 h
[7] = Drug uptake in human HCT116 cell subcellular region at 1 uM incubated for 3 hrs measured after 30 hrs of drug washout by confocal fluorescence microscopy; assay type: ADME, cell-based; conditions: hct-116, 3 h
[8] = Drug uptake in human HCT116 cell lysosomes at 1 uM by using Lyso Tracker Red DND-99 staining; assay type: ADME, cell-based, Lysosome; conditions: hct-116, 1 µM
[9] = Drug uptake in human HCT116 cell […] at 1 uM by using Lyso Tracker Red DND-99 staining; assay type: ADME, cell-based; conditions: hct-116, 1 µM
[10] = Drug uptake in human HCT116 mitochondria at 1 uM by using Mito Tracker Red 580 staining; assay type: ADME

- Drug uptake (HCT-116 [3]): Active
- Drug uptake [4]: Active
- Drug uptake [5]: Active
- Drug uptake [6]: Active
- Drug uptake [7]: Active
- Drug uptake [8]: Not Active
- Drug uptake [9]: Not Active
- Drug uptake [10]: Not Active
Compound: CC(=O)c1ccc(OC2Cc3c(ccc(C(C)=O)c3O)O2)cc1O (stereo unspecified)
- pIC50 (HCT-116 [1]): 6.66
- pIC50 (HeLa): 6.31
- pIC50 [2]: 7.09
